The values below are quoted from earlier work in article doi:10.1101/2023.04.08.536135v1 (bioRxiv, 2023).

This data set has as its system IDE.

Regarding “bradykinin (RPPGFSPFR; Bradykinin; UniProt P01042 381-389, looked up)”, the “rate of degradation by IDE relative to that of insulin” value is reported as “at least 20 fold”.
